In brackets after ≈: the same amount, converted by molar mass.
Columns and labels:
[1] = system: strain CRBΔpbp4; experiment: microbe, parasite or virus in culture; type: cell-based, Staphylococcus aureus; conditions: Staphylococcus aureus, read-out: BPR (ceftobiprole) MIC, Alone
[2] = system: CRB; experiment: MIC testing of antibiotics; type: cell-based, Staphylococcus aureus
Description: (§1) Bacterial Strains and Chemicals. The bacterial strains used in these studies include: USA300, USA300Δpbp4, USA300Δpbp4 pPBP4, COL, COLn, COLnex, CRB, and CRBΔpbp4. S. aureus strain USA300 is a predominant cause of U.S. community-associated MRSA infections, whereas strain COL is a commonly studied hospital-associated MRSA strain. The S. aureus USA300 pbp4-null strain (USA300Δpbp4) and PBP4 complementation strain (USA300Δpbp4 pPBP4) have been previously described. […] All strains were grown in Mueller Hinton (MH) broth at 37° C., as indicated.
(§2) Prioritized compounds were tested for their ability to reverse PBP4 mediated antibiotic resistance in another S. aureus background using three isogenic strains that became available during the study (generous gift from Dr. S. Chatterjee; University of Maryland). These strains included: 1) COLnex, which is a methicillin susceptible strain, 2) CRB, a methicillin/ceftobiprole resistant strain of COLnex that overproduces PBP4, and 3) CRBΔpbp4, a methicillin susceptible strain of CRB lacking the pbp4 gene.

[3] = system: S. aureus strain CRB; experiment: microbe, parasite or virus in culture; type: cell-based, Staphylococcus aureus; conditions: Staphylococcus aureus, read-out: BPR (ceftobiprole) MIC, Alone
Description: Fractional Inhibitory Concentration Index (FICI). Fractional inhibitory testing was performed in checkerboard format to determine whether putative PBP4 inhibitors potentiated the antimicrobial effects of β-lactams toward S. aureus strains USA300 and CRB, as previously described (Chojacnki, et al. Journal of Antimicrobial Chemotherapy, 2003, 52, 1). To do so, in triplicate 10^5 CFU of each strain (10 μL) was added to individual wells of a microtiter plate containing 90 μL MH media. […] Plates were incubated at 37° C. for 16-20 hour and the lowest concentration of each test agent that inhibited bacterial growth alone or in combination was determined by the naked eye. The fractional inhibitory concentration (FIC) index was calculated using the formula: FIC of A (MIC of drug A in combination/MIC of drug A alone)+FIC B ([…]/MIC of drug B alone). A synergistic interaction was defined as a FICI value of less than 0.5, an additive interaction was defined as a FICI value between 0.5 and 1.0, an indifferent interaction was defined as a FICI value between 1.0 and 4.0, and an antagonistic interaction was defined as a FICI value of more than 4.0.

[4] = system: COLnex; experiment: MIC testing of antibiotics; type: cell-based; conditions: Staphylococcus aureus, read-out: Minimum inhibitory concentration
Description: as §1, §2

[5] = system: CRBΔpbp4; experiment: MIC testing of antibiotics; type: cell-based; conditions: Staphylococcus aureus, read-out: Minimum inhibitory concentration
Description: as §1, §2

[6] = system: USA300Δpbp4 pPBP4; experiment: microbe, parasite or virus in culture; type: cell-based; conditions: Staphylococcus aureus, read-out: Minimum inhibitory concentration
[7] = system: USA300Δpbp4; experiment: MIC testing of antibiotics; type: cell-based, Staphylococcus aureus; conditions: Staphylococcus aureus, read-out: Minimum inhibitory concentration
Description: as §1
(§3) Prior to identifying new PBP4 inhibitors, a screening paradigm to identify existing molecules that reverse the antibiotic resistance profile of wild type cells to that of a pbp4 mutant was developed. To define screening conditions three strains were employed: 1) a wild type USA300 MRSA strain, 2) an isogenic pbp4 deletion strain, and 3) a complemented strain harboring a plasmid wildtype pbp4 copy. The antibiotic susceptibility profile of each strain was measured to determine the magnitude with which PBP4 affects resistance to various antibiotics (Table 1).

[8] = system: S. aureus strain USA300; experiment: microbe, parasite or virus in culture; type: cell-based, Staphylococcus aureus; conditions: Staphylococcus aureus, USA300, read-out: Minimum inhibitory concentration
Description: as §1, §3

[9] = system: HEPG2 cells; experiment: MTT cell viability / mammalian cytotoxicity; type: cell-based, human; conditions: compound at 100 μM; HEPG2 cells approximately 2.5 × 10^5 cells/mL
Description: Eukaryotic Toxicity Testing. Two rounds of eukaryotic toxicity testing were performed. Initially hits of interest were evaluated for antifungal activity in high throughput manner. To do so, 10^5 CFU of Saccharomyces cerevisiae YSB1001 cells (10 μL) were inoculated into individual wells of a microtiter plate containing yeast peptone dextrose media (88 μL) and 50 μM of each hit (2 μL). […] More extensive mammalian cytotoxicity testing was performed on the indicated highest priority hits of interest following International Organization for Standardization guidelines. Briefly, human liver epithelial cells (HEPG2) were cultured in Dulbecco's modified Eagle medium (DMEM; Fisher Scientific®) supplemented with 10% heat inactivated fetal bovine serum (FBS; Corning Life Sciences, Corning, NY) and 1% penicillin and streptomycin. Cells were incubated at 37° C. with 5% CO2 in Nunc™ tissue culture flasks (Roskilde, Denmark) until reaching 70% confluency. Cells were removed with 0.25% trypsin (Fisher Scientific®), resuspended in fresh medium, and used to seed approximately 2.5×10^5 mL^−1 cells into individual wells of a 96 well tissue culture microplate (Nunc™) containing 200 μL of fresh medium, and incubated for 24 hours. […] Mixtures were incubated for 20-24 h at 37° C. with 5% CO2, the media was removed and replaced with 100 μL fresh media and 10 μL of 12 mM (3-(4,5-dimethylthiazol-2-yl)-2,5-diphenyltetrazolium bromide (MTT) reagent (Cyquant™ Cell Viability kit; Invitrogen™, Carlsbad, CA) was added to each well. Cells were incubated at 37° C. with 5% CO2 for 2-4 hour, 85 μL of media was removed and the remainder was mixed with 50 μL DMSO and incubated for an additional 10 minutes at 37° C. in the dark. Using a SpectraMax® M5 microplate reader, cell viability was recorded as absorbance at OD540 nm. All compounds were tested in triplicate and cell viability was expressed as a percent viability of treated cells in comparison to mock treated cells. […]

[10] = biological target: recombinant B. subtilis PBP4 (Bacillus subtilis, UniProt P40750); experiment: BOCILLIN FL fluorescence polarization binding competition; conditions: compound 50 μM; Ex. 3 series
recombinant B. subtilis PBP4, sequence (P40750 22-624): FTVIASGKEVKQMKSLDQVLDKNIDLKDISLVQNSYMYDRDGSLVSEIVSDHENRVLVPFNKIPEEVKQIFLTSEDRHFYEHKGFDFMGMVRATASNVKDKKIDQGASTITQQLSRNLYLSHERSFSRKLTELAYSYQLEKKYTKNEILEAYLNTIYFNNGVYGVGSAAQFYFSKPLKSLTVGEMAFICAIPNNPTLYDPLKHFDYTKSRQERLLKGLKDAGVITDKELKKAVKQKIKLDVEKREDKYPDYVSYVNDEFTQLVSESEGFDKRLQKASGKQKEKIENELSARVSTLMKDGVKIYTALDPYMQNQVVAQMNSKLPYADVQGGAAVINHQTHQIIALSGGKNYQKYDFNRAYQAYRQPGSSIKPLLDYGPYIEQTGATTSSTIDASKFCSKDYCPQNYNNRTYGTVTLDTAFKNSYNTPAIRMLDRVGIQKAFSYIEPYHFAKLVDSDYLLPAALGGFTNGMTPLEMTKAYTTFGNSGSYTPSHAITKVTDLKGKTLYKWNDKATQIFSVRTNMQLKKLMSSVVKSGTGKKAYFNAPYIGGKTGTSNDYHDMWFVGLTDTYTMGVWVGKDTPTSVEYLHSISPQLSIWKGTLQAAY
Description: PBP4 BOCILLIN™ FL Binding Competition Assays. The ability of putative PBP4 inhibitors to impact the active site of recombinant PBP4 was assessed using two previously established BOCILLIN™-FL Penicillin (Penicillin V conjugated to BODIPY fluorescent dye) binding assays. First, fluorescence polarization assays were performed as previously described. Briefly, the indicated amount of the putative PBP4 inhibitor or control antibiotic was incubated with 1 μM recombinant B. subtilis PBP4 or S. aureus PBP2a in potassium phosphate buffer (40 mM K2HPO4 and 10 mM KH2PO4) for 1 hour in black 96-well microtiter plates (Corning Life Sciences®, Corning, NY). Following incubation, 1 μM (final concentration) BOCILLIN™ FL penicillin was added, and the mixture was incubated for 30 minutes. BOCILLIN™ FL fluorescence polarization was measured at (495nm excitation and 545nm emission) in a SpectraMax® M5 multimode plate reader (Molecular Devices®, San Jose, CA). All assays were repeated at least 8 times, averaged, and values falling outside of 2 standard deviations were considered outliers. Resulting data was plotted as percentage BOCILLIN™ FL binding inhibition=(T/U)×100; T=FL polarization of ((PBP4+BOCILLIN™ FL)−(PBP4+BOCILLIN™ FL+inhibitor compound)), U=FL polarization of ((PBP4+BOCILLIN™ FL)−(BOCILLIN™ FL)). Second, gel electrophoresis and fluorescence detection were used to measure BOCILLIN™ FL labeling of PBP4 treated with the known PBP4 inhibitor cefoxitin (positive control), kanamycin (negative control) or 9314848 (test compound). Briefly, 1 μM of recombinant PBP4 was mixed with 0, 50, 500, 2000, or 5000 μM 9314848 or control antibiotic in 50 mM phosphate buffer (pH 7.4) and incubated at 37° C. for 30 minutes. Next 40 μM of BOCILLIN™ FL was added to the reaction mixture and incubated for an additional 30 minutes at 37° C. Reactions were stopped by adding 5×SDS-PAGE gel loading dye, heated at 100° C. for 3 minutes and separated by electrophoresis in 12% SDS-PAGE (2 h, 120 Volts). BOCILLIN™ FL labeled PBP4 was imaged at λ=365 nm using a BioRad© Gel Doc EZ™ Imaging system and the gel was then subsequently stained with Bio-safe Coomassie Brilliant Blue stain (BioRad©, Hercules, CA, USA) to measure the amount of protein present in each reaction condition and analyzed using NIH-ImageJ software. The percent BOCILLIN™ FL binding was calculated by first normalizing the protein present in each reaction condition to that of untreated control and subsequently applying each reaction's protein normalization factor to each reaction's fluorescent signal. The percentage BOCILLIN™ FL binding inhibition was then calculated as the normalized band intensity of antibiotic/compound treated sample as compared to control sample (PBP4+BOCILLIN™ FL in the absence of compound).
To more directly evaluate whether 9314848 is likely to affect PBP4 function, the compound's ability to bind recombinant PBP4 was measured using BOCILLIN™ FL fluorescence polarization displacement assays. The premise for the assay is that the fluorescence polarization of the fluorescently labeled β-lactam, penicillin V (BOCILLIN™ FL), will increase upon binding to its cognate target (i.e., PBP4). Further, compounds that bind PBP4 and inhibit its function would impede BOCILLIN™ FL binding thereby allowing assessment of the protein binding affinity of 9314848 using a simple fluorescence reduction assay.

[11] = system: MRSA strain ATCC BAA-1556; experiment: Broth microdilution antibiotic potentiation; type: cell-based, Staphylococcus aureus; conditions: ATCC BAA-1556; Ex. 3 compound at 60 μM (18 and 19 at 30 μM)
Description: (§4) Broth Microdilution Method for Antibiotic Potentiation with MRSA Strains. Bacteria were cultured for 6 hours in CAMHB and sub-cultured to 5×10^5 CFU/mL in CAMHB. Subcultures were aliquoted (4 mL) into culture tubes and then inoculated with compound from 10 mM or 100 mM stock in DMSO to the desired concentration. […]. Bacteria treated with antibiotic alone served as the control. Samples from the secondary culture tubes were then aliquoted (200 μL) into the first row of wells of a 96-well microtiter plate. Rows 2-11 were filled (100 μL) with the remaining 4 mL of bacterial subculture containing the adjuvant. Row 12 was filled (100 μL) with uninoculated media. From row 1, 100 μL was transferred to row two and mixed 5-8 times before being transferred to row 3. This procedure was used to serial dilute the rest of the rows through 10. The microtiter plate was then covered in Press 'n Seal and incubated at 37° C.

[12] = system: MRSA strain AH-2204; experiment: Broth microdilution antibiotic potentiation; type: cell-based, Staphylococcus aureus; conditions: AH-2204; Ex. 3 compound at 60 μM (18 and 19 at 30 μM)
Description: as §4

[13] = system: MRSA strain AH-1263; experiment: Broth microdilution antibiotic potentiation; type: cell-based, Staphylococcus aureus; conditions: AH-1263; Ex. 3 compound at 60 μM (18 and 19 at 30 μM)
Description: as §4

Nc1nc(/C(=N/O)C(=O)N[C@@H]2C(=O)N3C(C(=O)O)=C(/C=C4\CCN([C@@H]5CCNC5)C4=O)CS[C@H]23)ns1 [BPR, ceftobiprole]
MIC [1]: 0.25 µg/mL (≈ 0.468 µM)
Minimum inhibitory concentration ([2]; CRB): >128 µg/mL
MIC ([2]; Staphylococcus aureus, read-out: Minimum inhibitory concentration, CRB): 128 µg/mL (≈ 239 µM)
MIC [3]: 128 µg/mL
MIC [4]: 0.25 µg/mL (≈ 0.468 µM)
MIC [5]: 0.25 µg/mL (≈ 0.468 µM)
MIC [6]: 0.5 µg/mL (≈ 0.935 µM)
MIC [7]: 0.25 µg/mL (≈ 0.468 µM)
MIC [8]: 0.5 µg/mL (≈ 0.935 µM)

O=C(Nc1ccc2[nH]c(-c3cc(Cl)cc(Cl)c3)nc2c1)c1ccco1 [Compound 33, N-(2-(3,5-Dichlorophenyl)-1H-benzo[d]imidazol-5-yl)furan-2-carboxamide]
Toxicity with HEPG2 Cells (cell viability) [9]: 151 ± 11.3%
Percentage Bocillin Displacement (%), PBP4 binding [10]: 56.5 ± 35.6%
Ampicillin MIC [11]: 16 µg/mL
Cefotaxime MIC [11]: 16 µg/mL
Cefotaxime MIC fold reduction [11]: (2)
Oxacillin MIC [11]: 16 µg/mL
Oxacillin MIC fold reduction [11]: (2)
Ampicillin MIC [12]: 2 µg/mL
Cefotaxime MIC [12]: 16 µg/mL
Oxacillin MIC [12]: 4 µg/mL
Oxacillin MIC fold reduction [12]: (8)
Ampicillin MIC [13]: 1 µg/mL
Ampicillin MIC fold reduction [13]: (16)
Cefotaxime MIC [13]: 32 µg/mL
Oxacillin MIC [13]: 16 µg/mL

O=C(Nc1ccc2[nH]c(C3CCCCC3)nc2c1)c1ccco1 [Compound 34, N-(2-Cyclohexyl-1H-benzo[d]imidazol-5-yl)furan-2-carboxamide]
Toxicity with HEPG2 Cells (cell viability) [9]: 97 ± 5.8%
Percentage Bocillin Displacement (%), PBP4 binding [10]: 60.3 ± 43.8%
Ampicillin MIC [11]: 16 µg/mL
Cefotaxime MIC [11]: 32 µg/mL
Oxacillin MIC [11]: 32 µg/mL
Ampicillin MIC [12]: 2 µg/mL
Cefotaxime MIC [12]: 8 µg/mL
Cefotaxime MIC fold reduction [12]: (2)
Oxacillin MIC [12]: 8 µg/mL
Oxacillin MIC fold reduction [12]: (4)
Ampicillin MIC [13]: 2 µg/mL
Ampicillin MIC fold reduction [13]: (8)
Cefotaxime MIC [13]: 32 µg/mL
Oxacillin MIC [13]: 16 µg/mL

Source: patent publication US20260124213A1, “STAPHYLOCOCCUS AUREUS PBP4 INHIBITORS AND METHOD OF USE” (UNIVERSITY OF ROCHESTER, priority 2022, published 2026)
